Laboratory results as given in ChEMBL document CHEMBL1201862, “PubChem BioAssay data set” (2004).
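Dose response: 5 concentrations. Exposure: 48 h. Format: 96-well plates. Endpoint: linear interpolation; highest concentration if not reached. GI50: concentration for 50% inhibition of growth.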 Active and inactive are the calls of the source. Cut-off read from the data, not from the text of the source: active = GI50 up to about 1.1 µM and inactive = higher.

Columns and labels:
Test in all cases: growth of human tumour cells (NCI), 48 h
ACHN = test system: ACHN
HCT-116 = test system: HCT-116
EKVX = test system: EKVX
UO-31 = test system: UO-31
CAKI-1 = test system: CAKI-1
MCF7 = test system: MCF7
A498 = test system: A498
NCI-H226 = test system: NCI-H226
BT-549 = test system: BT-549
OVCAR-4 = test system: OVCAR-4
RPMI-8226 = test system: RPMI-8226
SN12C = test system: SN12C
RXF 393 = test system: RXF 393
SW-620 = test system: SW-620
MDA-MB-435 = test system: MDA-MB-435
SK-MEL-5 = test system: SK-MEL-5
786-0 = test system: 786-0
Malme-3M = test system: Malme-3M
IGROV-1 = test system: IGROV-1
HOP-92 = test system: HOP-92
CCRF-CEM = test system: CCRF-CEM
KM12 = test system: KM12
K562 = test system: K562
HCT-15 = test system: HCT-15
NCI-H23 = test system: NCI-H23
SNB-75 = test system: SNB-75
SK-MEL-2 = test system: SK-MEL-2
MDA-N = test system: MDA-N
UACC-257 = test system: UACC-257
SK-OV-3 = test system: SK-OV-3
LOX IMVI = test system: LOX IMVI
T47D = test system: T47D
SF-295 = test system: SF-295
PC-3 = test system: PC-3
M14 = test system: M14
NCI-H522 = test system: NCI-H522
NCI-H460 = test system: NCI-H460
U-251 = test system: U-251
SF-268 = test system: SF-268
A549 = test system: A549
OVCAR-8 = test system: OVCAR-8
HOP-62 = test system: HOP-62
OVCAR-5 = test system: OVCAR-5
Hs-578T = test system: Hs-578T
NCI/ADR-RES = test system: NCI/ADR-RES
DU-145 = test system: DU-145
MOLT-4 = test system: MOLT-4
SNB-19 = test system: SNB-19
SR = test system: SR
MDA-MB-231 = test system: MDA-MB-231
HCC 2998 = test system: HCC 2998
COLO 205 = test system: COLO 205
OVCAR-3 = test system: OVCAR-3
UACC-62 = test system: UACC-62
SF-539 = test system: SF-539
TK-10 = test system: TK-10
SK-MEL-28 = test system: SK-MEL-28
HT-29 = test system: HT-29
HL-60 = test system: HL-60

`CC(C)(C)OC(=O)N(O)[C@@H]1C=C[C@H](n2cnc3c(N)ncnc32)C1` was tested, and the GI50 (ACHN) was > 100 µM (inactive), the GI50 (HCT-116) was > 100 µM (inactive) and the GI50 (EKVX) was > 100 µM (inactive). The GI50 (UO-31) was > 100 µM (inactive), the GI50 (CAKI-1) was > 100 µM (inactive) and the GI50 (MCF7) was > 100 µM (inactive). The GI50 (A498) was > 100 µM (inactive), the GI50 (NCI-H226) was 26.5 µM (inactive) and the GI50 (BT-549) was > 100 µM (inactive). For the same compound, the GI50 (OVCAR-4) was > 100 µM (inactive), the GI50 (RPMI-8226) was > 100 µM (inactive) and the GI50 (SN12C) was > 100 µM (inactive). The GI50 (RXF 393) was > 100 µM (inactive), the GI50 (SW-620) was > 100 µM (inactive) and the GI50 (MDA-MB-435) was > 100 µM (inactive). For the same compound, the GI50 (SK-MEL-5) was 70.5 µM (inactive), the GI50 (786-0) was > 100 µM (inactive) and the GI50 (Malme-3M) was > 100 µM (inactive). For the same compound, the GI50 (IGROV-1) was 59 µM (inactive), the GI50 (HOP-92) was > 100 µM (inactive) and the GI50 (CCRF-CEM) was > 100 µM (inactive). For the same compound, the GI50 (KM12) was > 100 µM (inactive), the GI50 (K562) was > 100 µM (inactive) and the GI50 (HCT-15) was > 100 µM. The GI50 (NCI-H23) was > 100 µM (inactive), the GI50 (SNB-75) was 33.9 µM (inactive) and the GI50 (SK-MEL-2) was > 100 µM (inactive). The GI50 (MDA-N) was > 100 µM (inactive), the GI50 (UACC-257) was > 100 µM (inactive) and the GI50 (SK-OV-3) was > 100 µM (inactive). For the same compound, the GI50 (LOX IMVI) was > 100 µM (inactive), the GI50 (T47D) was > 100 µM (inactive) and the GI50 (SF-295) was > 100 µM (inactive). For the same compound, the GI50 (PC-3) was > 100 µM (inactive), the GI50 (M14) was > 100 µM (inactive) and the GI50 (NCI-H522) was > 100 µM (inactive). The GI50 (NCI-H460) was > 100 µM (inactive), the GI50 (U-251) was > 100 µM (inactive) and the GI50 (SF-268) was > 100 µM (inactive). The GI50 (A549) was > 100 µM (inactive), the GI50 (OVCAR-8) was > 100 µM (inactive) and the GI50 (HOP-62) was 43 µM (inactive). The GI50 (OVCAR-5) was > 100 µM (inactive), the GI50 (Hs-578T) was 92.3 µM (inactive) and the GI50 (NCI/ADR-RES) was > 100 µM (inactive). For the same compound, the GI50 (DU-145) was > 100 µM (inactive), the GI50 (MOLT-4) was > 100 µM (inactive) and the GI50 (SNB-19) was > 100 µM (inactive). For the same compound, the GI50 (SR) was > 100 µM (inactive), the GI50 (MDA-MB-231) was > 100 µM (inactive) and the GI50 (HCC 2998) was > 100 µM (inactive). The GI50 (COLO 205) was > 100 µM (inactive), the GI50 (OVCAR-3) was > 100 µM (inactive) and the GI50 (UACC-62) was > 100 µM (inactive). For the same compound, the GI50 (SF-539) was > 100 µM (inactive), the GI50 (TK-10) was > 100 µM (inactive) and the GI50 (SK-MEL-28) was > 100 µM (inactive).
For `Cc1nc2c(n1CCCl)C(=O)c1ccccc1C2=O`, the GI50 (ACHN) was 28.9 µM (inactive), the GI50 (HCT-116) was 16.1 µM (inactive) and the GI50 (EKVX) was 53.8 µM (inactive). The GI50 (MCF7) was 18.9 µM (inactive), the GI50 (NCI-H226) was 18.7 µM (inactive) and the GI50 (BT-549) was 20.1 µM (inactive). For the same compound, the GI50 (OVCAR-4) was 14.8 µM (inactive), the GI50 (RPMI-8226) was 58.6 µM (inactive) and the GI50 (SN12C) was 30.3 µM (inactive). The GI50 (HT-29) was 15.8 µM (inactive), the GI50 (RXF 393) was 19.5 µM (inactive) and the GI50 (SW-620) was 23 µM (inactive). The GI50 (MDA-MB-435) was 15.3 µM (inactive), the GI50 (SK-MEL-5) was > 10 µM (inactive) and the GI50 (786-0) was 52.2 µM (inactive). For the same compound, the GI50 (HL-60) was 16.3 µM (inactive), the GI50 (Malme-3M) was 5.82 µM (inactive) and the GI50 (IGROV-1) was 11.6 µM (inactive). The GI50 (HOP-92) was 29.2 µM (inactive), the GI50 (CCRF-CEM) was 22.6 µM (inactive) and the GI50 (KM12) was 25.3 µM (inactive). For the same compound, the GI50 (K562) was 16 µM (inactive), the GI50 (HCT-15) was 7.87 µM and the GI50 (NCI-H23) was 29.9 µM (inactive). For the same compound, the GI50 (SNB-75) was 14.5 µM (inactive), the GI50 (MDA-N) was 18.7 µM (inactive) and the GI50 (UACC-257) was 14.1 µM (inactive). For the same compound, the GI50 (SK-OV-3) was 5.22 µM (inactive), the GI50 (T47D) was > 10 µM (inactive) and the GI50 (SF-295) was 21.4 µM (inactive). For the same compound, the GI50 (PC-3) was 8.43 µM (inactive), the GI50 (M14) was 4.68 µM (inactive) and the GI50 (NCI-H522) was 16.7 µM (inactive). For the same compound, the GI50 (NCI-H460) was 14.9 µM (inactive), the GI50 (U-251) was 12.6 µM (inactive) and the GI50 (SF-268) was 22 µM (inactive). For the same compound, the GI50 (A549) was 33.7 µM (inactive), the GI50 (OVCAR-8) was 17.9 µM (inactive) and the GI50 (HOP-62) was 19.5 µM (inactive). The GI50 (OVCAR-5) was 19 µM (inactive), the GI50 (Hs-578T) was 20.1 µM (inactive) and the GI50 (NCI/ADR-RES) was 16.2 µM (inactive). For the same compound, the GI50 (DU-145) was 35.4 µM (inactive), the GI50 (MOLT-4) was 12.9 µM (inactive) and the GI50 (SNB-19) was 39.1 µM (inactive). For the same compound, the GI50 (SR) was 28.8 µM (inactive), the GI50 (MDA-MB-231) was 15.4 µM (inactive) and the GI50 (HCC 2998) was 21.7 µM (inactive). For the same compound, the GI50 (COLO 205) was 14 µM (inactive), the GI50 (OVCAR-3) was 25.4 µM (inactive) and the GI50 (UACC-62) was 13 µM (inactive). For the same compound, the GI50 (SF-539) was 31.4 µM (inactive), the GI50 (TK-10) was 26.7 µM (inactive) and the GI50 (SK-MEL-28) was 42.8 µM (inactive).
In the case of `c1ccc(CN2CCC3(CC2)SSC2(CCN(Cc4ccccc4)CC2)SS3)cc1`, the GI50 (ACHN) is reported as > 100 µM (inactive), the GI50 (HCT-116) is reported as > 100 µM (inactive) and the GI50 (EKVX) is reported as 12.9 µM (inactive). The GI50 (UO-31) was > 100 µM (inactive), the GI50 (CAKI-1) was > 100 µM (inactive) and the GI50 (MCF7) was > 100 µM (inactive). For the same compound, the GI50 (A498) was > 100 µM (inactive), the GI50 (NCI-H226) was > 100 µM (inactive) and the GI50 (BT-549) was > 100 µM (inactive). The GI50 (OVCAR-4) was > 100 µM (inactive), the GI50 (RPMI-8226) was > 100 µM (inactive) and the GI50 (SN12C) was > 100 µM (inactive). For the same compound, the GI50 (HT-29) was 27.2 µM (inactive), the GI50 (RXF 393) was > 100 µM (inactive) and the GI50 (SW-620) was 5.48 µM (inactive). For the same compound, the GI50 (MDA-MB-435) was > 100 µM (inactive), the GI50 (SK-MEL-5) was 57.3 µM (inactive) and the GI50 (786-0) was > 100 µM (inactive). The GI50 (Malme-3M) was 97.5 µM (inactive), the GI50 (IGROV-1) was > 100 µM (inactive) and the GI50 (HOP-92) was > 100 µM (inactive). The GI50 (KM12) was > 100 µM (inactive), the GI50 (K562) was > 100 µM (inactive) and the GI50 (HCT-15) was > 100 µM. For the same compound, the GI50 (NCI-H23) was 79.1 µM (inactive), the GI50 (SNB-75) was > 100 µM (inactive) and the GI50 (SK-MEL-2) was > 100 µM (inactive). The GI50 (MDA-N) was > 100 µM (inactive), the GI50 (UACC-257) was 59.7 µM (inactive) and the GI50 (SK-OV-3) was > 100 µM (inactive). For the same compound, the GI50 (LOX IMVI) was > 100 µM (inactive), the GI50 (T47D) was > 100 µM (inactive) and the GI50 (SF-295) was > 100 µM (inactive). The GI50 (PC-3) was > 100 µM (inactive), the GI50 (M14) was > 100 µM (inactive) and the GI50 (NCI-H522) was 37 µM (inactive). For the same compound, the GI50 (NCI-H460) was > 100 µM (inactive), the GI50 (U-251) was > 100 µM (inactive) and the GI50 (SF-268) was > 100 µM (inactive). For the same compound, the GI50 (A549) was > 100 µM (inactive), the GI50 (OVCAR-8) was > 100 µM (inactive) and the GI50 (HOP-62) was > 100 µM (inactive). For the same compound, the GI50 (OVCAR-5) was > 100 µM (inactive), the GI50 (Hs-578T) was > 100 µM (inactive) and the GI50 (NCI/ADR-RES) was > 100 µM (inactive). The GI50 (DU-145) was > 100 µM (inactive), the GI50 (MOLT-4) was > 100 µM (inactive) and the GI50 (SNB-19) was > 100 µM (inactive). The GI50 (SR) was 83.2 µM (inactive), the GI50 (MDA-MB-231) was > 100 µM (inactive) and the GI50 (HCC 2998) was 45.5 µM (inactive). For the same compound, the GI50 (COLO 205) was 64 µM (inactive), the GI50 (OVCAR-3) was > 100 µM (inactive) and the GI50 (UACC-62) was > 100 µM (inactive). The GI50 (SF-539) was > 100 µM (inactive), the GI50 (TK-10) was > 100 µM (inactive) and the GI50 (SK-MEL-28) was 34.9 µM (inactive).
